A value given as a limit tells only on which side of the number the result lay.

Chain of human TYK2 (JH2domain-pseudokinase) (P29597 556-888): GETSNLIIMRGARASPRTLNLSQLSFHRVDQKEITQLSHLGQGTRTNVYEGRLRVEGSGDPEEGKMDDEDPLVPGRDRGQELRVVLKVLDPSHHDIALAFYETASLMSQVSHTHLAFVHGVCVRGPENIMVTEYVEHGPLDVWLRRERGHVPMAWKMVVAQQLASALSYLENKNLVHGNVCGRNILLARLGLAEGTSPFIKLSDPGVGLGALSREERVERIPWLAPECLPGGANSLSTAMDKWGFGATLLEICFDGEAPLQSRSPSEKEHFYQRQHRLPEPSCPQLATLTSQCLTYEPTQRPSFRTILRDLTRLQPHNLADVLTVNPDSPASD

This experiment has as its target human TYK2 (JH2domain-pseudokinase) (Homo sapiens (Human), UniProt P29597). The experiment can be described thus: TYK2 JH2 Domain Binding Assay (KINOMEscan, DiscoveRx). To be noted: 11-point dilution, duplicate. An outline of the steps:
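TYK2 JH2 (G556–D888)–NFkB DBD fusion, DNA-tagged, from HEK293 extracts (<0.1 nM) competed against immobilised biotinylated ligand for 1 h at room temperature, 0.9% DMSO. Bead-retained kinase quantified by qPCR; Kd from 11-point 3-fold series (top 30,000 nM, duplicate), Hill fit with slope −1.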
With `COc1c(Nc2cc(NC(=O)C3CC3)nc3[nH]c(C(F)F)nc23)cccc1-c1nnn(C)c1C` [I-155, N-(2-(difluoromethyl)-7-((3-(1,5-dimethyl-1H-1,2,3-triazol-4-yl)-2-methoxyphenyl)amino)-3H-imidazo[4,5-b]pyridin-5-yl)cyclopropanecarboxamide], the Kd was 1 to 10 nM.

As for `Cc1nc2c(Nc3ccc(-c4cn(C)cn4)cc3N(C)S(C)(=O)=O)cc(NC(=O)C3CC3)nc2[nH]1` [I-156, N-(2-methyl-7-((4-(1-methyl-1H-imidazol-4-yl)-2-(N-methylmethylsulfonamido)phenyl)amino)-3H-imidazo[4,5-b]pyridin-5-yl)cyclopropanecarboxamide], the Kd lay in the range of 0.1 to 0.5 nM.

As to `COc1c(Nc2cc(NC(=O)C3CC3)nc3[nH]c(C)nc23)cccc1-c1c(C)nnn1C` [I-157, N-(7-((3-(1,4-dimethyl-1H-1,2,3-triazol-5-yl)-2-methoxyphenyl)amino)-2-methyl-3H-imidazo[4,5-b]pyridin-5-yl)cyclopropanecarboxamide], the Kd lay in the range of 1 to 10 nM. For `COc1c(Nc2cc(NC(=O)C3CC3)nc3[nH]c(C)nc23)cccc1-c1nnn(C)c1C` [I-158, N-(7-((3-(1,5-dimethyl-1H-1,2,3-triazol-4-yl)-2-methoxyphenyl)amino)-2-methyl-3H-imidazo[4,5-b]pyridin-5-yl)cyclopropanecarboxamide] the value was > 10 nM; for `CS(=O)(=O)c1ccccc1Nc1cc(NC(=O)C2CC2)nc2[nH]c(C(F)F)nc12` [I-159], 0.1 to 0.5 nM; for `COc1cc(-c2cncn2C)ccc1Nc1cc(Nc2cccc(C#N)n2)nc2[nH]c(C)nc12` [I-160, 6-((7-((2-methoxy-4-(1-methyl-1H-imidazol-5-yl)phenyl)amino)-2-methyl-3H-imidazo[4,5-b]pyridin-5-yl)amino)picolinonitrile], 1 to 10 nM. The value for `COc1cc(-c2nc(C)nn2C)ccc1Nc1cc(NC(=O)C2CC2)nc2[nH]c(C(F)F)nc12` [I-161, N-(2-(difluoromethyl)-7-((4-(1,3-dimethyl-1H-1,2,4-triazol-5-yl)-2-methoxyphenyl)amino)-3H-imidazo[4,5-b]pyridin-5-yl)cyclopropanecarboxamide] was 1 to 10 nM; that for `COc1c(Nc2cc(NC(=O)C3CC3)nc3[nH]c(C)nc23)cccc1-n1ncnc1C` [I-162, N-(7-((2-methoxy-3-(5-methyl-1H-1,2,4-triazol-1-yl)phenyl)amino)-2-methyl-3H-imidazo[4,5-b]pyridin-5-yl)cyclopropanecarboxamide] was > 10 nM; that for `COc1cc(-c2nc(C)nn2C)ccc1Nc1cc(NC(=O)C2CC2)nc2[nH]c(C)nc12` [I-163, N-(7-((4-(1,3-dimethyl-1H-1,2,4-triazol-5-yl)-2-methoxyphenyl)amino)-2-methyl-3H-imidazo[4,5-b]pyridin-5-yl)cyclopropanecarboxamide] was 0.5 to 1 nM.

As to `Cc1nc(-c2ccc(Nc3cc(NC(=O)C4CC4)nc4[nH]c(C(F)F)nc34)c(N(C)S(C)(=O)=O)c2)n(C)n1` [I-164, N-(2-(difluoromethyl)-7-((4-(1,3-dimethyl-1H-1,2,4-triazol-5-yl)-2-(N-methylmethylsulfonamido)phenyl)amino)-3H-imidazo[4,5-b]pyridin-5-yl)cyclopropanecarboxamide], the Kd is 0.1 to 0.5 nM.

For `Cc1nc(-c2ccc(Nc3cc(NC(=O)C4CC4)nc4[nH]c(C)nc34)c(N(C)S(C)(=O)=O)c2)n(C)n1` [I-165, N-(7-((4-(1,3-dimethyl-1H-1,2,4-triazol-5-yl)-2-(N-methylmethylsulfonamido)phenyl)amino)-2-methyl-3H-imidazo[4,5-b]pyridin-5-yl)cyclopropanecarboxamide], the dissociation constant (Kd) was > 10 nM. `Cc1nc(-c2ccc(Nc3cc(Nc4cnc(C)c(C)n4)nc4[nH]c(C(F)F)nc34)c(N(C)S(C)(=O)=O)c2)n(C)n1` [I-166, N-(2-((2-(difluoromethyl)-5-((5,6-dimethylpyrazin-2-yl)amino)-3H-imidazo[4,5-b]pyridin-7-yl)amino)-5-(1,3-dimethyl-1H-1,2,4-triazol-5-yl)phenyl)-N-methyl-methanesulfonamide]: the Kd lay in the range of 0.1 to 0.5 nM. The value for `COc1c(Nc2cc(Nc3cc(F)c(N4CC(OC)C4)cn3)nc3[nH]c(C(F)F)nc23)cccc1-c1nc(C)nn1C` [I-167, 2-(difluoromethyl)-N7-(3-(1,3-dimethyl-1H-1,2,4-triazol-5-yl)-2-methoxyphenyl)-N5-(4-fluoro-5-(3-methoxyazetidin-1-yl)pyridin-2-yl)-3H-imidazo[4,5-b]pyridine-5,7-diamine] was > 10 nM; that for `COc1c(Nc2cc(Nc3cc(F)c(N4CC(OC)C4)cn3)nc3[nH]c(C)nc23)cccc1-c1nc(C)nn1C` [I-168, N7-(3-(1,3-dimethyl-1H-1,2,4-triazol-5-yl)-2-methoxyphenyl)-N5-(4-fluoro-5-(3-methoxyazetidin-1-yl)pyridin-2-yl)-2-methyl-3H-imidazo[4,5-b]pyridine-5,7-diamine] was > 10 nM. The value for `Cc1cnc(-c2ccc(Nc3cc(NC(=O)C4CC4)nc4[nH]c(C(F)F)nc34)c(N(C)S(C)(=O)=O)c2)n1C` [I-169, N-(2-(difluoromethyl)-7-((4-(1,5-dimethyl-1H-imidazol-2-yl)-2-(N-methylmethylsulfonamido)phenyl)amino)-3H-imidazo[4,5-b]pyridin-5-yl)cyclopropanecarboxamide] was 0.1 to 0.5 nM; that for `Cc1nc2c(Nc3ccc(-c4ncc(C)n4C)cc3N(C)S(C)(=O)=O)cc(NC(=O)C3CC3)nc2[nH]1` [I-170, N-(7-((4-(1,5-dimethyl-1H-imidazol-2-yl)-2-(N-methylmethyl-sulfonamido)phenyl)amino)-2-methyl-3H-imidazo[4,5-b]pyridin-5-yl)cyclopropanecarboxamide] was 0.1 to 0.5 nM; that for `CN(c1cc(-c2ccn(C)n2)ccc1Nc1cc(NC(=O)C2CC2)nc2[nH]c(C(F)F)nc12)S(C)(=O)=O` [I-171, N-(2-(difluoromethyl)-7-((4-(1-methyl-1H-pyrazol-3-yl)-2-(N-methylmethylsulfonamido)phenyl)amino)-3H-imidazo[4,5-b]pyridin-5-yl)cyclopropaneCarboxamide] was 0.1 to 0.5 nM.

Take `COc1c(Nc2cc(NC(=O)C3CC3)nc3[nH]c(C(F)(F)F)nc23)cccc1-c1nnn(C)n1` [I-172, N-(7-((2-methoxy-3-(2-methyl-2H-tetrazol-5-yl)phenyl)amino)-2-(trifluoromethyl)-3H-imidazo[4,5-b]pyridin-5-yl)cyclopropanecarboxamide]: the Kd was > 10 nM. For `Cc1nc(-c2ccc(Nc3cc(Nc4cnc(C)c(C)n4)nc4[nH]c(C)nc34)c(N(C)S(C)(=O)=O)c2)n(C)n1` [I-173, N-(5-(1,3-dimethyl-1H-1,2,4-triazol-5-yl)-2-((5-((5,6-dimethylpyrazin-2-yl)amino)-2-methyl-3H-imidazo[4,5-b]pyridin-7-yl)amino)phenyl)-N-methylmethanesulfonamide] the value was > 10 nM.

In the case of `Cc1nc2c(Nc3ccc(-c4ccn(C)n4)cc3N(C)S(C)(=O)=O)cc(NC(=O)C3CC3)nc2[nH]1` [I-174, N-(2-methyl-7-((4-(1-methyl-1H-pyrazol-3-yl)-2-(N-methyl-methysulfonamido)phenyl)amino)-3H-imidazo[4,5-b]pyridin-5-yl)cyclopropanecarboxamide], the Kd is 0.1 to 0.5 nM.

For orientation: Kd means the free concentration of one partner at which half of the binding sites on the other are occupied at equilibrium, for simple one-to-one binding.

Source of the values: patent publication US10647713B2 (Nimbus Lakshmi, Inc., priority 2016, dated 2020).
